The target in test [1] is T1, Inhibitor of nuclear factor kappa-B kinase subunit epsilon (Homo sapiens) (UniProt Q14164).
T1 sequence (whole entry): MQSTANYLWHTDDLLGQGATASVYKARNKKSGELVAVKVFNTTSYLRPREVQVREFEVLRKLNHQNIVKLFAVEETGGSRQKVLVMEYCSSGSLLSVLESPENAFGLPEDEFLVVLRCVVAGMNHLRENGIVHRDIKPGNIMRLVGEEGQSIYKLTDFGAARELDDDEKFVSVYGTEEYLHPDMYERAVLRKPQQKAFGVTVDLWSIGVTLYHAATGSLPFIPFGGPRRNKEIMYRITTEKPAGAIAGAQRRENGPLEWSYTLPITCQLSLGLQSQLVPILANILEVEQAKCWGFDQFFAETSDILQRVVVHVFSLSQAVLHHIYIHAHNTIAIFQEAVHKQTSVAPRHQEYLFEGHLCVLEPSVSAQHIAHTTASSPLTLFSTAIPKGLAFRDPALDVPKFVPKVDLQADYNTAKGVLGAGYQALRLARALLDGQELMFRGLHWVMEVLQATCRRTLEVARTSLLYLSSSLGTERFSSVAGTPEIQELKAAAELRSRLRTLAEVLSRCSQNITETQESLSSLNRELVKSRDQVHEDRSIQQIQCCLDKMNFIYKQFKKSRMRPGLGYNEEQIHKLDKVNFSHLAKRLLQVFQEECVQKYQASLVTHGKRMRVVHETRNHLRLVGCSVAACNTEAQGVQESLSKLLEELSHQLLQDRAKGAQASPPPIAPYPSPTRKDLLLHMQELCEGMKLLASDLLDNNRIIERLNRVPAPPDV
The test is described as follows: Inhibition of IKKepsilon (unknown origin) at 1 uM incubated for 30 mins in presence of [gamma-33P]ATP by multidrop micro reagent based assay relative to control.

In test [2] the target is Misshapen-like kinase 1 (Homo sapiens) (UniProt Q8N4C8). The test is described as follows: Inhibition of MINK1 (unknown origin) at 1 uM incubated for 30 mins in presence of [gamma-33P]ATP by multidrop micro reagent based assay relative to control.
Sequence of Misshapen-like kinase 1 (Homo sapiens) (Q8N4C8 whole entry, looked up, the tested form may be a part): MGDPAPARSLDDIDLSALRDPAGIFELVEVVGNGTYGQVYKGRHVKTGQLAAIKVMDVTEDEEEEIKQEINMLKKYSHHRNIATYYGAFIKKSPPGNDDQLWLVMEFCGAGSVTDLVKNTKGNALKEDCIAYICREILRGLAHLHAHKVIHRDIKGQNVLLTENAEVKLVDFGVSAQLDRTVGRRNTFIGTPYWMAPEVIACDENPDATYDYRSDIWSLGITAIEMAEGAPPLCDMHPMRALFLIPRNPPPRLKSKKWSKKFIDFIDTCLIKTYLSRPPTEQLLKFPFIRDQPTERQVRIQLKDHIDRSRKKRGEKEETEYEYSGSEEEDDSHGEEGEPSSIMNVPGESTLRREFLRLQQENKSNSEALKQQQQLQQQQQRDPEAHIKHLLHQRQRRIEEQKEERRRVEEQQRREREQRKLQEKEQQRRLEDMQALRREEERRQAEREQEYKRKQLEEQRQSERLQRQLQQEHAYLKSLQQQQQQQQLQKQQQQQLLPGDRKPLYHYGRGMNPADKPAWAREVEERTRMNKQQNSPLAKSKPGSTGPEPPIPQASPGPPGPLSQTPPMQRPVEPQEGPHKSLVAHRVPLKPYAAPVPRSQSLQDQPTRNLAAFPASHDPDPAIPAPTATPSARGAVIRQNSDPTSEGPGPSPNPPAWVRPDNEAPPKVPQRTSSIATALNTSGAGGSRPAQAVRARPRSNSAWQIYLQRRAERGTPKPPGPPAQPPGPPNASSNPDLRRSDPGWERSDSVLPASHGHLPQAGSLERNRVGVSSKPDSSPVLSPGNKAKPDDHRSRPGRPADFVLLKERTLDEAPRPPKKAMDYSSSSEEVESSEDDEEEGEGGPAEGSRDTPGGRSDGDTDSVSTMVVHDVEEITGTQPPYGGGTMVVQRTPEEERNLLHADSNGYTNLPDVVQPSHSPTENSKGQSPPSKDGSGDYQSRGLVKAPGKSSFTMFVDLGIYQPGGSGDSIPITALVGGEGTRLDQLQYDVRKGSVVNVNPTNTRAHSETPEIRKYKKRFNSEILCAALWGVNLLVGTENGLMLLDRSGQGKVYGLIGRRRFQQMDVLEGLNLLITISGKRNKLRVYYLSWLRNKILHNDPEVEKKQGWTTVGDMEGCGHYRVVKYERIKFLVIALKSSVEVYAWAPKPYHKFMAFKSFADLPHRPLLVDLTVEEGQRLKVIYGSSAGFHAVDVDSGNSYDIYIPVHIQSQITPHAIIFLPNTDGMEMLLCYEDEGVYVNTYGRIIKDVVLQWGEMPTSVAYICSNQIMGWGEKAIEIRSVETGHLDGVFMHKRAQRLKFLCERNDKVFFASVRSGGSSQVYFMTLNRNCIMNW
For test [3], the target named is Leucine-rich repeat serine/threonine-protein kinase 2 (Homo sapiens, UniProt Q5S007). The test is described as follows: Inhibition of GST-tagged LRRK2 (1326 to 2527 residues) (unknown origin) using peptide as substrate incubated for 15 mins in presence of ATP by immunoblotting analysis. In general terms: Immunoblotting shows a protein as a band on a membrane.
Sequence of Leucine-rich repeat serine/threonine-protein kinase 2 (Homo sapiens, UniProt Q5S007) (Q5S007 whole entry, the tested form may be a part): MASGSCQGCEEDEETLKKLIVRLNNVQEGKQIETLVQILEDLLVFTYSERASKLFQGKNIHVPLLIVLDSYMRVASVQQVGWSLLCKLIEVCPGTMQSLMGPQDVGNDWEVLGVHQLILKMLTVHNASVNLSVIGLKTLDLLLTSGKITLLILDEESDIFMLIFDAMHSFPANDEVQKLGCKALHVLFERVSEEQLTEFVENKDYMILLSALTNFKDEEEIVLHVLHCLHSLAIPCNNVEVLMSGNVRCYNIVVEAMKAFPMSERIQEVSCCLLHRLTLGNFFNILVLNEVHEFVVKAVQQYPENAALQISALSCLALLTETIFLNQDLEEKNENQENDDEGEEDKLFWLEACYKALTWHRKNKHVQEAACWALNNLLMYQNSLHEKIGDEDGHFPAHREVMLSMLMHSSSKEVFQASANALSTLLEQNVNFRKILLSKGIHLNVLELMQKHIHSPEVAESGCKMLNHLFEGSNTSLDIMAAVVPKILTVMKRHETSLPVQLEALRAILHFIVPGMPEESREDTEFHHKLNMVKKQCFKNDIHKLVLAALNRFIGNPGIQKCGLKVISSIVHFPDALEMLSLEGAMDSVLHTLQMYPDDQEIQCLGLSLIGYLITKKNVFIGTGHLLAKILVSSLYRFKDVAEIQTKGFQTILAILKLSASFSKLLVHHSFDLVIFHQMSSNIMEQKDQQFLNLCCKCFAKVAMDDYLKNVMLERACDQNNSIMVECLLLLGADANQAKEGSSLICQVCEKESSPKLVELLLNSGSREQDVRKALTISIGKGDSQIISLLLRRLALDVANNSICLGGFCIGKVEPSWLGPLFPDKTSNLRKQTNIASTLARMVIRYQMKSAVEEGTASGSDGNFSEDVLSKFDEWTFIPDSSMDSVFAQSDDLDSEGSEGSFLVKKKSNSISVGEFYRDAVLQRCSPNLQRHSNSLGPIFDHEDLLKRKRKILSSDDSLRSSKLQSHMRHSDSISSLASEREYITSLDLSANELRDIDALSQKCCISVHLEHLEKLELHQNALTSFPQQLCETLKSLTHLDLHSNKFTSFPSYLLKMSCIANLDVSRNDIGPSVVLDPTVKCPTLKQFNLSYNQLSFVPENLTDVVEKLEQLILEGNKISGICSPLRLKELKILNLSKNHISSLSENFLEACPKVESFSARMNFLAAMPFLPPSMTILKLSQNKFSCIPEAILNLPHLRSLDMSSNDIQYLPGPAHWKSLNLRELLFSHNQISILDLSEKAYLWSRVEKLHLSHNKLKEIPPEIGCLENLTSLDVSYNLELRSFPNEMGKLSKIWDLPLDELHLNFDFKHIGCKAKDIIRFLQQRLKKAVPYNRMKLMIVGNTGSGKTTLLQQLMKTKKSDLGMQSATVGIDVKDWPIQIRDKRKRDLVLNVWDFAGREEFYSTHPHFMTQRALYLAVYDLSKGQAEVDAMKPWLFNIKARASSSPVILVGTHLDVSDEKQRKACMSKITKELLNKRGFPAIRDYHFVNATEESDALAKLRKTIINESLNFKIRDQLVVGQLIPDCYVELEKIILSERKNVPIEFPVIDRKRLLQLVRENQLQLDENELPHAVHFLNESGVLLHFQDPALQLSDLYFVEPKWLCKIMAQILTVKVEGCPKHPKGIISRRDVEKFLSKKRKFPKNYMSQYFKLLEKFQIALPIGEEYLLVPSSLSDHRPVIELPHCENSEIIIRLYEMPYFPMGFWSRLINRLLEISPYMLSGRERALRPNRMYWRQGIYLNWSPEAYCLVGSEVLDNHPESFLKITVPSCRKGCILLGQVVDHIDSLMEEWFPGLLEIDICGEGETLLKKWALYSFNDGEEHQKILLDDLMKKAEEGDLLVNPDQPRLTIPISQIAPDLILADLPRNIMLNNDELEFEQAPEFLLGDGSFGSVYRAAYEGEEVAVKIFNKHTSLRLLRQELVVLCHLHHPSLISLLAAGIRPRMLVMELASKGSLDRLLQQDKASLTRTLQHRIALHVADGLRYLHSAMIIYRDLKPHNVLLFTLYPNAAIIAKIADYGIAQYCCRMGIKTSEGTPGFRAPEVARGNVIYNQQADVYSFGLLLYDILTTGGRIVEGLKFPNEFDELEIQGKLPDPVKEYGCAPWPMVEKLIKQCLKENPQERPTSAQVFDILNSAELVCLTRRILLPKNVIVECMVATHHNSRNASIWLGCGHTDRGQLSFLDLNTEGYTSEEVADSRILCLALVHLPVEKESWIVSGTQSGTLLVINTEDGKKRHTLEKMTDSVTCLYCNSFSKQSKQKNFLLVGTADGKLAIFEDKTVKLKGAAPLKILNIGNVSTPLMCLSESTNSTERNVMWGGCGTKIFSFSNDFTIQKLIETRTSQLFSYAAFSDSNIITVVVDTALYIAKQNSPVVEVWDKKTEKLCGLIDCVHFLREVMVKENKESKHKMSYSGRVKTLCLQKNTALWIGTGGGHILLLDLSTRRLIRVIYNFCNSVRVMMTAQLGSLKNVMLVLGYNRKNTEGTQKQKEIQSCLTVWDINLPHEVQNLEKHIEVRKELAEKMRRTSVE
The target in test [4] is Leucine-rich repeat serine/threonine-protein kinase 2 (Homo sapiens, UniProt Q5S007, G2019S). The test is described as follows: Inhibition of GST-tagged LRRK2 G2019S mutant (1326 to 2527 residues) (unknown origin) using peptide as substrate incubated for 15 mins in presence of ATP by immunoblotting analysis.
Sequence of Leucine-rich repeat serine/threonine-protein kinase 2 (Homo sapiens, UniProt Q5S007, G2019S) (Q5S007 whole entry G2019S, the tested form may be a part): as the sequence (Q5S007 whole entry, the tested form may be a part) above, with G2019S counted along it
The target of test [5] is MAP kinase-interacting serine/threonine-protein kinase 2 (Homo sapiens) (UniProt Q9HBH9). The test is described as follows: Inhibition of MNK2 (unknown origin) at 1 uM incubated for 30 mins in presence of [gamma-33P]ATP by multidrop micro reagent based assay relative to control; values are per cent of control.
Sequence of MAP kinase-interacting serine/threonine-protein kinase 2 (Homo sapiens) (Q9HBH9 whole entry, looked up): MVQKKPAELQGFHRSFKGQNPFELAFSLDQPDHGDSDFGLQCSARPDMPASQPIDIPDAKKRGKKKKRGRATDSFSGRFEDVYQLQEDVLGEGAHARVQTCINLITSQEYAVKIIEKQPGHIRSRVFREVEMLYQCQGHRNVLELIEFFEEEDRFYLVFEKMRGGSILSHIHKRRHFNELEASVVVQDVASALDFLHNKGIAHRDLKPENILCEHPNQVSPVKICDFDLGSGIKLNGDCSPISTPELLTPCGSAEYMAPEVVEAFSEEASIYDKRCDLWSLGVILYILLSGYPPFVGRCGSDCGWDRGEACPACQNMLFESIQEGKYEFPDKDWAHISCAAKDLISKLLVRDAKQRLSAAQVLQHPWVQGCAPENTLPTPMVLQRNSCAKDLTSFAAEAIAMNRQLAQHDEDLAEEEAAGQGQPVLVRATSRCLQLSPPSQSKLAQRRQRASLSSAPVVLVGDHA
Test [6] has as its target T2, Serine/threonine-protein kinase TBK1 (Homo sapiens) (UniProt Q9UHD2).
T2 sequence (whole entry): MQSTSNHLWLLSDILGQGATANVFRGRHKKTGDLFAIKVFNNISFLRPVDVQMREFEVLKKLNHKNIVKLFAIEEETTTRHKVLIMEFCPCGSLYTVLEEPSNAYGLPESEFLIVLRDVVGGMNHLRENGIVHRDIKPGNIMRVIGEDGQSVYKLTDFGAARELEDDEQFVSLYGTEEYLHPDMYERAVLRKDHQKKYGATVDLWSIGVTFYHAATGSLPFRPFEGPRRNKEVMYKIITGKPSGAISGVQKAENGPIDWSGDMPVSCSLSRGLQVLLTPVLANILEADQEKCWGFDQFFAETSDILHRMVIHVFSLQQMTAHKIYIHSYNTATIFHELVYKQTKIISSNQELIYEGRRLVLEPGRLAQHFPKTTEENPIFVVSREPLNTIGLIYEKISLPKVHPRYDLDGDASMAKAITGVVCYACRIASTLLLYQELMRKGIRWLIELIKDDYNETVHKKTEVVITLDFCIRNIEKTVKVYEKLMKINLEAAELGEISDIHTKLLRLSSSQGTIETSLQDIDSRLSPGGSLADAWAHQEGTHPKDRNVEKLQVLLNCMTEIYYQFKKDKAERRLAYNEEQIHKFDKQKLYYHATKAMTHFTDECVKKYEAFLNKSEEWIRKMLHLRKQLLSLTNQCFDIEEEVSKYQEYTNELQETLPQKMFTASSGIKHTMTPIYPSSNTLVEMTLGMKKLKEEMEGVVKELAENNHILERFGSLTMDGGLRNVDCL
The test is described as follows: Inhibition of TBK1 (unknown origin) at 1 uM incubated for 30 mins in presence of [gamma-33P]ATP by multidrop micro reagent based assay relative to control; values are per cent of control.

In test [7] the target is T3, Protein kinase C zeta type (Homo sapiens) (UniProt Q05513).
T3 sequence (whole entry): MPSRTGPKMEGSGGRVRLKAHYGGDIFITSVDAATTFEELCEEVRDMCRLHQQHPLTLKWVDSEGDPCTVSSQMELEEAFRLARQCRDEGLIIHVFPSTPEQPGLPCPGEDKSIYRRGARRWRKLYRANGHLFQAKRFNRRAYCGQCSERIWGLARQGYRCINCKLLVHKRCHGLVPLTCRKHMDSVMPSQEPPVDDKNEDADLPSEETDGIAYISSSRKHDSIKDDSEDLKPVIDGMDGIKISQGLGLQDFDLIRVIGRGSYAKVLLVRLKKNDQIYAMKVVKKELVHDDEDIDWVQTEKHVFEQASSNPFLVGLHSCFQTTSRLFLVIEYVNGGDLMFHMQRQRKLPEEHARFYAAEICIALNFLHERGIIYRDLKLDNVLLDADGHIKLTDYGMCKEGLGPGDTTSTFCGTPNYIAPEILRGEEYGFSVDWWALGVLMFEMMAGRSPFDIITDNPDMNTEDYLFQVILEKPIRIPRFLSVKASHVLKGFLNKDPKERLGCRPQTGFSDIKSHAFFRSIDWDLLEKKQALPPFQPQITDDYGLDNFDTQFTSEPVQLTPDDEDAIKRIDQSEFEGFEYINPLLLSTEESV
The test is described as follows: Inhibition of PKCzeta (unknown origin) at 1 uM incubated for 30 mins in presence of [gamma-33P]ATP by multidrop micro reagent based assay relative to control; values are per cent of control.

As a reminder, the residual activity is the signal under treatment as a percentage of the control signal. In general, IC50 refers to the midpoint of a concentration-inhibition curve.

For `CCn1c(-c2nonc2N)nc2cnc(Oc3cccc(NC(=O)c4ccc(OCCN5CCOCC5)cc4)c3)cc21` [GSK-269962A], the residual activity in test [1] turned out to be 66%; in test [2], 70%; in test [5] it was 51%; in test [6] it was 77%; in test [7] it was 5%. The half-inhibitory concentration (IC50) in test [3] was determined as 3.7 µM; in test [4], 2.3 µM.

On to `CC1=C(C(=O)Nc2cc3cn[nH]c3cc2F)C(c2ccc(C(F)(F)F)cc2)CC(=O)N1` (stereo unspecified), for which the residual activity in test [1] stood at 109%; in test [2], 75%; in test [5] it was 88%; in test [6], 101%; in test [7] it was 81%. In addition, the half-maximal inhibitory concentration (IC50) in test [3] and in test [4] was more than 100 µM each time.

As for `O=S(=O)(c1cccc2cnccc12)N1CCCNCC1` [FASUDIL], the IC50 in test [3] and in test [4] was more than 30 µM in each case.

Consider `Cc1cncc2cccc(S(=O)(=O)N3CCCNC[C@@H]3C)c12`, for which the residual activity in test [1] was 80%; in test [2] it was 104%; in test [5] it was 49%; in test [6] it was 98%; in test [7], 86%. Moreover, the IC50 in test [3] is 0.244 µM; in test [4], 0.15 µM.

`CCN(CC)CCNC(=O)c1c(C)[nH]c(/C=C2\C(=O)Nc3ccc(F)cc32)c1C`: the residual activity is 63% in test [1], 8% in test [2] and 54% in test [6].

The values are drawn from ChEMBL document CHEMBL5705888, “Substrate specificity and inhibitors of LRRK2, a protein kinase mutated in Parkinson's disease” (Biochem J, 2009).
